Source: patent US10906890B2, “Triazole phenyl compounds as agonists of the APJ receptor” (AMGEN INC., priority 2016, dated 2021)

Target: human APJ receptor (Homo sapiens (Human), UniProt P35414)
Assay: [35S]GTPγS binding assay on membranes from CHO cells stably expressing human APJ receptor
Format: biochemical
Details: means of several independent experiments, read-out: Activity hAPJ SPA EC50 IP
Method in brief: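 Membranes from CHO cells stably expressing FLAG-tagged human APJ incubated with [35S]GTPγS in buffer with optimized GDP, MgCl2 and NaCl levels, 90 min at RT. Signal read by imaging; EC50 by non-linear regression from means of several independent experiments.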

human APJ receptor, sequence (P35414 whole entry): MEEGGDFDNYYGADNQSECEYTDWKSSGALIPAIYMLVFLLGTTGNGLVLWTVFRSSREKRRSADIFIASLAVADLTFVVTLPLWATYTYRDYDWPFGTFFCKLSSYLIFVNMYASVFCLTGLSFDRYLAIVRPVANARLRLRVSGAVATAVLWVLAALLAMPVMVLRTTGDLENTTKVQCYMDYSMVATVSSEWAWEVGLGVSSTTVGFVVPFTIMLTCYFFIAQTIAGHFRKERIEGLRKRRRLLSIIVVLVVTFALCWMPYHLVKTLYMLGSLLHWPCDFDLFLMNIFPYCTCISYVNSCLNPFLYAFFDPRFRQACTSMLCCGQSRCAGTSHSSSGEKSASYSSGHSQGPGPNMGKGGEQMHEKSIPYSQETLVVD

| SMILES | EC50 [nM] |
| --- | --- |
| COc1cccc(OC)c1-n1c(NS(=O)(=O)[C@@H](C)[C@H](OC)c2ncc(C)cn2)nnc1-c1ccc2nc(N)sc2c1 [Example 74.0, (1R,2S)-N-(5-(2-amino-1,3-benzothiazol-6-yl)-4-(2,6-dimethoxyphenyl)-4H-1,2,4-triazol-3-yl)-1-methoxy-1-(5-methyl-2-pyrimidinyl)-2-propanesulfonamide] | 140 |
| COc1ccc(-c2nnc(NS(=O)(=O)[C@@H](C)[C@H](OC)c3ncc(C)cn3)n2-c2c(OC)cccc2OC)cc1C#N [Example 75.0, (1R,2S)-N-(5-(3-cyano-4-methoxyphenyl)-4-(2,6-dimethoxyphenyl)-4H-1,2,4-triazol-3-yl)-1-methoxy-1-(5-methyl-2-pyrimidinyl)-2-propanesulfonamide] | 13 |
| COc1cccc(-c2nnc(NS(=O)(=O)[C@@H](C)[C@H](OC)c3ncc(C)cn3)n2-c2c(OC)cccc2OC)c1 [Example 76.0, (1R,2S)-N-(4-(2,6-dimethoxyphenyl)-5-(3-methoxyphenyl)-4H-1,2,4-triazol-3-yl)-1-methoxy-1-(5-methyl-2-pyrimidinyl)-2-propanesulfonamide] | 0.51 |
| COc1cccc(OC)c1-n1c(NS(=O)(=O)[C@@H](C)[C@H](OC)c2ncc(C)cn2)nnc1-c1ccccc1 [Example 77.0, (1R,2S)-N-(4-(2,6-dimethoxyphenyl)-5-phenyl-4H-1,2,4-triazol-3-yl)-1-methoxy-1-(5-methyl-2-pyrimidinyl)-2-propanesulfonamide] | 1 |
| COc1cccc(OC)c1-n1c(NS(=O)(=O)[C@@H](C)[C@H](OC)c2ncc(C)cn2)nnc1-c1ccc(C)cc1 [Example 78.0, (1R,2S)-N-(4-(2,6-dimethoxyphenyl)-5-(4-methylphenyl)-4H-1,2,4-triazol-3-yl)-1-methoxy-1-(5-methyl-2-pyrimidinyl)-2-propanesulfonamide] | 2.4 |
| COc1ccc(OC)c(-c2nnc(NS(=O)(=O)[C@@H](C)[C@H](OC)c3ncc(C)cn3)n2-c2c(OC)cccc2OC)c1 [Example 79.0, (1R,2S)-N-(5-(2,5-dimethoxyphenyl)-4-(2,6-dimethoxyphenyl)-4H-1,2,4-triazol-3-yl)-1-methoxy-1-(5-methyl-2-pyrimidinyl)-2-propanesulfonamide] | 3.8 |
| COc1cccc(OC)c1-n1c(NS(=O)(=O)[C@@H](C)[C@H](OC)c2ncc(C)cn2)nnc1-c1ccc2c(c1)CCO2 [Example 80.0, (1R,2S)-N-(5-(2,3-dihydro-1-benzofuran-5-yl)-4-(2,6-dimethoxyphenyl)-4H-1,2,4-triazol-3-yl)-1-methoxy-1-(5-methyl-2-pyrimidinyl)-2-propanesulfonamide] | 3.5 |
| COc1cccc(OC)c1-n1c(NS(=O)(=O)[C@@H](C)[C@H](OC)c2ncc(C)cn2)nnc1-c1cccc(Br)c1 [Example 81.0, (1R,2S)-N-(5-(3-bromophenyl)-4-(2,6-dimethoxyphenyl)-4H-1,2,4-triazol-3-yl)-1-methoxy-1-(5-methyl-2-pyrimidinyl)-2-propanesulfonamide] | 0.27 |
| COc1cccc(OC)c1-n1c(NS(=O)(=O)[C@@H](C)[C@H](OC)c2ncc(C)cn2)nnc1-c1ccc(Oc2ccccc2)cc1 [Example 82.0, (1R,2S)-N-(4-(2,6-dimethoxyphenyl)-5-(4-phenoxyphenyl)-4H-1,2,4-triazol-3-yl)-1-methoxy-1-(5-methyl-2-pyrimidinyl)-2-propanesulfonamide] | > 4200 |
| CCN(CC)c1ccc(-c2nnc(NS(=O)(=O)[C@@H](C)[C@H](OC)c3ncc(C)cn3)n2-c2c(OC)cccc2OC)cc1 [Example 83.0, (1R,2S)-N-(5-(4-(diethylamino)phenyl)-4-(2,6-dimethoxyphenyl)-4H-1,2,4-triazol-3-yl)-1-methoxy-1-(5-methyl-2-pyrimidinyl)-2-propanesulfonamide] | 89 |
| COc1cccc(OC)c1-n1c(NS(=O)(=O)[C@@H](C)[C@H](OC)c2ncc(C)cn2)nnc1-c1ccc2nccnc2c1 [Example 84.0, (1R,2S)-N-(4-(2,6-dimethoxyphenyl)-5-(6-quinoxalinyl)-4H-1,2,4-triazol-3-yl)-1-methoxy-1-(5-methyl-2-pyrimidinyl)-2-propanesulfonamide] | 55 |
| COc1cccc(OC)c1-n1c(NS(=O)(=O)[C@@H](C)[C@H](OC)c2ncc(C)cn2)nnc1-c1cccc(F)c1 [Example 85.0, (1R,2S)—N-(4-(2,6-Dimethoxyphenyl)-5-(3-fluorophenyl)-4H-1,2,4-triazol-3-yl)-1-methoxy-1-(5-methyl-2-pyrimidinyl)-2-propanesulfonamide] | 0.92 |
| COc1cccc(OC)c1-n1c(NS(=O)(=O)[C@@H](C)[C@H](OC)c2ncc(C)cn2)nnc1-c1cccc(C#N)c1 [Example 86.0, (1R,2S)-N-(5-(3-cyanophenyl)-4-(2,6-dimethoxyphenyl)-4H-1,2,4-triazol-3-yl)-1-methoxy-1-(5-methyl-2-pyrimidinyl)-2-propanesulfonamide] | 10.6 |
| COc1cccc(OC)c1-n1c(NS(=O)(=O)[C@@H](C)[C@H](OC)c2ncc(C)cn2)nnc1-c1cccc(Cl)c1 [Example 87.0, (1R,2S)-N-(5-(3-chlorophenyl)-4-(2,6-dimethoxyphenyl)-4H-1,2,4-triazol-3-yl)-1-methoxy-1-(5-methyl-2-pyrimidinyl)-2-propanesulfonamide] | 0.56 |
| COc1cccc(OC)c1-n1c(NS(=O)(=O)[C@@H](C)[C@H](OC)c2ncc(C)cn2)nnc1-c1cccc(OC(F)(F)F)c1 [Example 89.0, (1R,2S)—N-(4-(2,6-Dimethoxyphenyl)-5-(3-(trifluoromethoxy)phenyl)-4H-1,2,4-triazol-3-yl)-1-methoxy-1-(5-methyl-2-pyrimidinyl)-2-propanesulfonamide] | 0.47 |
| COc1cccc(OC)c1-n1c(NS(=O)(=O)[C@@H](C)[C@H](OC)c2ncc(C)cn2)nnc1-c1cccc2ncccc12 [Example 90.0] | 540 |
| COc1cccc(OC)c1-n1c(NS(=O)(=O)[C@@H](C)[C@H](OC)c2ncc(Cl)cn2)nnc1-c1cccc2cn(C)nc12 [Example 91.0] | 2 |
| COc1cccc(OC)c1-n1c(NS(=O)(=O)[C@@H](C)[C@H](OC)c2ncc(C)cn2)nnc1-c1cccc2cn(C)nc12 [Example 92.0] | 60 |
| COc1ncnc(OC)c1-n1c(NS(=O)(=O)[C@@H](C)[C@H](OC)c2ncc(C)cn2)nnc1-c1cccc2cn(C)nc12 [Example 93.0] | 41 |

| SMILES | EC50 [nM] |
| --- | --- |
| COc1ncnc(OC)c1-n1c(NS(=O)(=O)[C@@H](C)[C@H](OC)c2ncc(Cl)cn2)nnc1-c1cccc2cn(C)nc12 [Example 94.0] | 2.9 |
| COc1cccc(OC)c1-n1c(NS(=O)(=O)[C@@H](C)[C@H](OC)c2ncc(C)cn2)nnc1-c1cccc2cnccc12 [Example 95.0] | 340 |
| COCC(COC)n1c(NS(=O)(=O)[C@@H](C)[C@H](OC)c2ncc(Cl)cn2)nnc1-c1ccccc1 [Example 96.0, (1R,2S)-1-(5-Chloro-2-pyrimidinyl)-N-(4-(1,3-dimethoxy-2-propanyl)-5-phenyl-4H-1,2,4-triazol-3-yl)-1-methoxy-2-propanesulfonamide] | 16 |
| COCC1(n2c(NS(=O)(=O)[C@@H](C)[C@H](OC)c3ncc(Cl)cn3)nnc2-c2ccccc2)CC1 [Example 97.0, (1R,2S)-1-(5-Chloro-2-pyrimidinyl)-1-methoxy-N-(4-(1-(methoxymethyl)cyclopropyl)-5-phenyl-4H-1,2,4-triazol-3-yl)-2-propanesulfonamide] | 1 |
| CO[C@H](c1ncc(Cl)cn1)[C@H](C)S(=O)(=O)Nc1nnc(-c2ccccc2)n1C1(C)CC1 [Example 98.0] | 3.3 |
| Cc1cnc([C@H](OC(C)C)[C@H](C)S(=O)(=O)Nc2nnc(-c3ccccc3)n2C2(C)CC2)nc1 [Example 99.0] | 8 |
| CO[C@H](c1ncc(Cl)cn1)[C@H](C)S(=O)(=O)Nc1nnc(-c2ccccc2)n1C(C)C [Example 110.0] | 75 |
| COCC1(n2c(NS(=O)(=O)[C@@H](C)[C@H](OC)c3ncc(Cl)cn3)nnc2-c2cccc3nn(C)cc23)CC1 [Example 114.0] | 53 |
| CO[C@H](c1ncc(Cl)cn1)[C@H](C)S(=O)(=O)Nc1nnc(-c2cccc3nn(C)cc23)n1C1CC1 [Example 115.0] | 11 |
| CO[C@H](c1ncc(Cl)cn1)[C@H](C)S(=O)(=O)Nc1nnc(-c2cccc3nn(C)cc23)n1C(C)C [Example 116.0] | 220 |
| COCC1(n2c(NS(=O)(=O)[C@@H](C)[C@H](OC)c3ncc(Cl)cn3)nnc2-c2cccc3nn(C)cc23)CCC1 [Example 117.0] | 340 |
| COc1ccccc1-c1nnc(NS(=O)(=O)[C@@H](C)[C@H](OC)c2ncc(Cl)cn2)n1[C@@H]1CCCOC1 [Example 118.0] | 180 |
| COc1cccc(-c2nnc(NS(=O)(=O)[C@@H](C)[C@H](OC)c3ncc(Cl)cn3)n2[C@H]2CCCOC2)c1 [Example 119.0] | 22 |
| Cc1cnc([C@@H](C)[C@H](C)S(=O)(=O)Nc2nnc(-c3cccc4nn(C)cc34)n2C2CCOCC2)nc1 [Example 120.0] | 590 |
| CO[C@H](c1ncc(Cl)cn1)[C@H](C)S(=O)(=O)Nc1nnc(-c2cccc(S(C)(=O)=O)c2)n1C1CC1 [Example 121.0, (1R,2S)-1-(5-Chloropyrimidin-2-yl)-N-(4-cyclopropyl-5-(3-(methylsulfonyl)phenyl)-4H-1,2,4-triazol-3-yl)-1-methoxypropane-2-sulfonamide] | 590 |
| CO[C@H](c1ncc(Cl)cn1)[C@H](C)S(=O)(=O)Nc1nnc(-c2cccc(OC(F)F)c2)n1C1CC1 [Example 122.0, (1R,2S)-1-(5-Chloropyrimidin-2-yl)-N-(4-cyclopropyl-5-(3-(difluoromethoxy)phenyl)-4H-1,2,4-triazol-3-yl)-1-methoxypropane-2-sulfonamide] | 250 |
| COCC(COC)n1c(NS(=O)(=O)[C@@H](C)[C@@H](OC(C)C)c2ncc(Cl)cn2)nnc1-c1ccccc1 [Example 123.0] | 7.2 |
| COC[C@@H](C)n1c(NS(=O)(=O)[C@@H](C)[C@H](OC)c2ncc(Cl)cn2)nnc1-c1ccccc1 [Example 124.0] | 57 |
| COC[C@H](C)n1c(NS(=O)(=O)[C@@H](C)[C@H](C)c2ncc(Cl)cn2)nnc1-c1ccccc1 [Example 126.0] | 17 |
